13 compounds from patent US20250115578A1, “AROMATIC FUSED RING NAV1.8 INHIBITOR, AND USE THEREOF” (CHENGDU KANGHONG PHARMACEUTICAL CO., LTD., priority 2022, published 2025) can be followed below.

Molecules are shown by their SMILES. Some results are limits rather than exact numbers.

The target in one series is hNav1.8 (Homo sapiens (Human), UniProt Q9Y5Y9). In words: Manual patch clamp, Method 1 (CHO cell line stably expressing hNav1.8). To be noted: for inhibition at 0.01 µM: 10 nM; for inhibition at 0.01 µM / inhibition at 0.1 µM: Method 1, CHO-hNav1.8, read-out: Inhibition rate of hNav1.8; for inhibition at 0.1 µM: 100 nM; for IC50: Method 1, CHO-hNav1.8, manual patch clamp, resting state, read-out: IC50 inhibitory activity against hNav1.8. In kind it is cell-based. The text has this: The patch clamp technique is known as the “gold standard” for studying ion channels, and it uses glass microelectrodes to seal the cell membrane to measure the currents of various membrane channel. […] Patch clamp technology can evaluate the inhibition strength of different compounds on different states of Navs by measuring the changes of membrane channel currents after different compounds bind to different states of Navs.
The representative compounds of the present invention used stable CHO or HEK293 cell lines transfected with specific ion channels to measure the effect of the compounds on Nav1.8 currents by manual patch clamp test, to evaluate their inhibition strength.
The assay protocol of manual patch clamp is as follows:
CHO cell lines with stable expression of hNav1.8 were cultured in F12 medium containing 10% fetal bovine serum at a constant temperature of 37° C., and the carbon dioxide concentration was maintained at 5%. The old culture medium was removed and washed once with PBS, then 1 mL 0.25%-Trypsin-EDTA solution was added and incubated at 37° C. for 1 min. When the cells were detached from the bottom of the dish, 5 mL of the complete medium preheated at 37° C. was added, and the aggregated cells were separated by gently blowing with a straw. The cell suspension was transferred into a sterile centrifuge tube and centrifuged at 1000 rpm for 5 min to collect cells. The cells were then inoculated into a cell culture dish with a diameter of 6 cm (2.5×10^5 cells/petri dish, 5 mL medium) for expansion or maintenance.
In order to maintain the electrophysiological activity of the cells, the cell density must be less than 80%.
The cells were separated with 0.25%-Trypsin-EDTA before the assay, and 5×10^3 cells were seeded on a cover slip and cultured in a 24-well plate (final volume: 500 μL) for 18 h. Then the assay was conducted.
The compounds prepared in the examples of the present invention were dissolved in dimethyl sulfoxide (DMSO) and prepared into DMSO stock solution with a concentration of 10 mM for assay. And it was diluted to various concentrations with extracellular solution (140 mM NaCl, 3.5 mM KCl, 1 mM MgCl2, 2 mM CaCl2), 10 mM Glucose, 10 mM HEPES, 1.25 mM NaH2PO4, pH=7.4 regulated by NaOH), and the final concentration of DMSO in each compound sample was 0.10% or less.
A capillary glass pipette (BF150-86-10, Sutter Instruments) was pulled into a recording electrode with a micropipette puller (P97, Sutter Instruments). The micromanipulator (MP285, Sutter Instruments) was manipulated under an inverted microscope (IX71, Olympus) to make the recording electrode contact the cell and negative pressure suction was applied to achieve a GQ seal. Then, rapid capacitance compensation was performed, and negative pressure was continued, cell membrane was broken by suction, and whole cell recording mode was formed. Then the slow capacitance was compensated and the membrane capacitance and series resistance were recorded without leakage compensation. When the whole cell recording current was stabilized, dosing was initiated, and the next concentration was detected after acting 5 minutes of each drug concentration. Multiple cells were independently repeated during the recording period. All electrophysiological assays were performed at room temperature. Specifically, 6 concentrations (measuring IC50) or 2 concentrations (preliminary screening) were set for each compound, and the percentage of inhibition of sodium channels was determined by calculating the relative percentage of peak current generated before and after each concentration compound treated cells, and the IC50 value or percentage of inhibition at a specific concentration was calculated using IGOR pro software.
On the technique in general: The patch-clamp technique gives a direct electrical read-out from membranes.

Series [1] is described as follows: Stability assay for human liver microsomes in vitro. In kind it is in vitro ADME. To be noted: 1 μM compound, 0.5 mg/mL liver microsomes, read-out: Human liver microsome stability T1/2. The protocol: • Human liver microsomes, purchased from Corning or Xenotech, stored in a −80° C. refrigerator. • Nicotinamide adenine dinucleotide phosphate (NADPH), Chem-impex international, 00616 • Control compounds: testosterone, diclofenac, propafenone
• Water bath (HH-60, Guohua, Changzhou, China) • Pipette workstation (PP-550DS, Apricot, Covina, USA) • Centrifuge (5810R, Eppendorf, Hamburg, Germany) • Mass Spectrometer (Sciex API 4000, Singapore) • High Performance Liquid Chromatography (LC 20-AD, Shimadzu, Kyoto, Japan) • Sampler (ADDA, Apricot Designs, California, USA)
• Stock solution: 10 mM in DMSO • Working solution concentration preparation: 10 mM stock solution was diluted to 100 μM with 100% acetonitrile (organic phase content: 99% ACN, 1% DMSO)
Two 96-well incubation plates were named T60 incubation plate and NCF60 incubation plate.
445 μL microsomal working solution (liver microsomal protein concentration: 0.56 mg/mL) was added to the T60 and NCF60 incubation plates respectively, then the incubation plates above were placed in a water bath at 37° C. for pre-incubation approximately 10 minutes.
After the pre-incubation finished, 5 μL of the test compound working solution was added to the T60 and NCF60 incubation plates respectively, and mixed well. 50 μL potassium phosphate buffer was added to each well on the NCF60 incubation plate to start the reaction. 180 μL termination solution (acetonitrile solution containing 200 ng/mL tolbutamide and 200 ng/mL labetalol) and 6 uL working solution of NADPH regeneration system were added to the TO termination plate, and 54 μL samples were removed from the T60 incubation plate to the TO termination plate (TO sample generated). The reaction was initiated by adding 44 μL of NADPH regenerating system working solution per well on the T60 incubation plate. Only 54 μL microsomal working solution, 6 uL NADPH regeneration system working solution, and 180 μL termination solution were added to the Blank plate. Therefore, in the samples of the test or control compounds, the final reaction concentration of the compounds, testosterone, diclofenac and propafenone was 1 μM, the concentration of the liver microsomes was 0.5 mg/mL, and the final concentration of DMSO and acetonitrile in the reaction system was 0.01% (v/v) and 0.99% (v/v), respectively.
After incubation for an appropriate time (e.g. 5, 10, 20, 30, and 60 minutes), 180 μL of termination solution (acetonitrile solution containing 200 ng/mL tolbutamide and 200 ng/mL labetalol) was added to the sample hole of each termination plate, respectively. After that, 60 μL sample was removed from the T60 incubation plate to terminate the reaction.
All sample plates were shaken evenly and centrifuged at 3220×g for 20 min. Then 80 μL supernatant was taken from each well and diluted to 240 μL pure water for LC-MS/MS analysis.
All samples were injected for analysis.

Series [2] in a line: Assay of kinetic solubility. In kind it is physicochemical. To be noted: aqueous buffer, kinetic from dmso stock, pH 3.5 phosphate buffer, 25° C. The protocol: The stock solutions of the test compound and the standard progesterone were prepared in DMSO at the concentration of 10 mM.
30 μL of stock solutions at 10 mM of the test compounds and standard substance were placed in order into their proper 96-well plate. 970 μL phosphate buffer at the specified pH was added to the proper vial of the sample plate. The assay was performed in duplicate. A stirring stick was added to each vial and the teflon/silicone plug was capped. The sample tray was then placed in the Eppendorf Thermomixer Comfort and shaken at 1100 RPM at 25° C. for 2 hours. After 2 hours, plugs were removed, a big magnet was used to remove the stirring sticks, and samples were transferred from the sample plate to the filter plate. Vacuum pump was used to create negative pressure and filtered the samples. Transferred 5 μL of the filtrate to the new sample plate, then added 5 μL DMSO and 490 μL water/acetonitrile (V/V=1/1) to dilute the solvent. The dilution factor may be adjusted according to the solubility values of the substances to be tested or the strength of its LC-MS signal response.
From the 10 mM DMSO stock solution, 15 μL of that was transferred into the empty plate and 485 μL DMSO was added to prepare a 300 μM standard solution. From the 300 μM standard solution plate, 5 μL of that was transferred to another empty plate and 5 μL phosphate buffer at specified pH and 490 μL water/acetonitrile (V/V=1/1) dilution solvent were added to the standard solution to get a final concentration of 3 μM. The concentration of the standard solution may be adjusted according to the strength of its LC-MS signal response.
The sample plate was placed into the sample tray of the automatic sampler and the samples were evaluated by LC-MS/MS analysis.
All calculations were carried out by Microsoft Excel.
The sample filtrate was analyzed and quantified against a standard of known concentrations using LC-MS spectral peaks to identify and quantify. The solubility values of the control drug and the compounds to be tested were calculated as the following formula: • [Sample]: concentration of the sample • AREASample: peak area of the sample • INJ VOLStd: standard sample injection volume • DFSample: sample dilution factor • [STD]: standard substance concentration • AREAStd: peak area of standard substance • INJ VOLSample: sample injection volume

Chain of hNav1.8 (Q9Y5Y9 whole entry): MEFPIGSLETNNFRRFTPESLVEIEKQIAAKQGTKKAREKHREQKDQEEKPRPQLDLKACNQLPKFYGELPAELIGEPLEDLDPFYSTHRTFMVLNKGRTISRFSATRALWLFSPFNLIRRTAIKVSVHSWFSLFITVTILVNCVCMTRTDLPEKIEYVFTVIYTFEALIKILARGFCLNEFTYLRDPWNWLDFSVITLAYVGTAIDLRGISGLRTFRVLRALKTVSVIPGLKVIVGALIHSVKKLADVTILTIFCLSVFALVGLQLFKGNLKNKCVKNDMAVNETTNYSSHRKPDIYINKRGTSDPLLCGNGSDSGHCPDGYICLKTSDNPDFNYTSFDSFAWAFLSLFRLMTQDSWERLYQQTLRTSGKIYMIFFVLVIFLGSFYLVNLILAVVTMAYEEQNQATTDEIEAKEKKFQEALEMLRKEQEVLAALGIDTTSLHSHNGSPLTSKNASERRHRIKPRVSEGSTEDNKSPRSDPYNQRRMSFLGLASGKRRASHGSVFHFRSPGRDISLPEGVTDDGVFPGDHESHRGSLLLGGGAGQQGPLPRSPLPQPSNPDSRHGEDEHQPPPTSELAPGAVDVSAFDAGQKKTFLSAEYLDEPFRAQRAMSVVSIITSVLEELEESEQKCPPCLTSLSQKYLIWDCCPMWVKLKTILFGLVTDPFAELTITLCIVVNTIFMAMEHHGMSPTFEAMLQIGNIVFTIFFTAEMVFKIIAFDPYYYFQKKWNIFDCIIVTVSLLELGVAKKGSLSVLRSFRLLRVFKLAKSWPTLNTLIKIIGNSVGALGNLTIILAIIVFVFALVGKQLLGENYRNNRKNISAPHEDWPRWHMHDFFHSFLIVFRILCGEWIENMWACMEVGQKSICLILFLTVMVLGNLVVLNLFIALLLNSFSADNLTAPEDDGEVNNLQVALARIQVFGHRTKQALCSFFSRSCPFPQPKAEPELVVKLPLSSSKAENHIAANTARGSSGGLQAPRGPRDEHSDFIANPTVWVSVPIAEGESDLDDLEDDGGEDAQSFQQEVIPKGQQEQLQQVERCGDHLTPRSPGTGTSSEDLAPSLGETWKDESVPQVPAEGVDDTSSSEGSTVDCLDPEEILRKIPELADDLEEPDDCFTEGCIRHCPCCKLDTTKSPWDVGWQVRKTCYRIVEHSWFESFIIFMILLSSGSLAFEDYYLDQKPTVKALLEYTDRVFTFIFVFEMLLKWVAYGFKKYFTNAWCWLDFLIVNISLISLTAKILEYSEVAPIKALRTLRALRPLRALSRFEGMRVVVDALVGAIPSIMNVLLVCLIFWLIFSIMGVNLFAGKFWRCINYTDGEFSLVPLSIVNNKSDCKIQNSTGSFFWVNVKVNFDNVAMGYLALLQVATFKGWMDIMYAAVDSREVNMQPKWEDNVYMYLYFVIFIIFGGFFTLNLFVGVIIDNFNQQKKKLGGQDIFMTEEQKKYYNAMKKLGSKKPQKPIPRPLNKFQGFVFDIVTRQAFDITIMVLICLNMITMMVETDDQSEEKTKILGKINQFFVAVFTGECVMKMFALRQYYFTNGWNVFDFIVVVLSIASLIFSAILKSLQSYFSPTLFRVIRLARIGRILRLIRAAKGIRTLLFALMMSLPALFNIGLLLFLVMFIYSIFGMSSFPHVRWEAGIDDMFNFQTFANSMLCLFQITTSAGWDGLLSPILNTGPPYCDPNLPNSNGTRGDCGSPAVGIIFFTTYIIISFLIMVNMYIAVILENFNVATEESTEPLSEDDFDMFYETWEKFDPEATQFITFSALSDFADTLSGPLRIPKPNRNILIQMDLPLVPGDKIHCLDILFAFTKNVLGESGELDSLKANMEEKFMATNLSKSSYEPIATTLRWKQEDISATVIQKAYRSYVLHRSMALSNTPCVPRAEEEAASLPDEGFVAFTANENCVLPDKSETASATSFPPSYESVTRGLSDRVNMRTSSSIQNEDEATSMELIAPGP

The inhibition is the relative decrease from the control value, in per cent. Regarding `NC(=O)c1cc(NC(=O)c2cc3cccnc3cc2N2CCCC(F)(F)CC2)ccn1` [Example 18, N-(2-carbamoylpyridin-4-yl)-7-(4,4-difluoroazepan-1-yl)quinoline-6-carboxamide], at hNav1.8, the inhibition at 0.01 µM was -3.14% and the inhibition at 0.1 µM amounted to 21.5%.

For the compound `O=C(Nc1cn[nH]c(=O)c1)c1nc2ccccc2nc1N1CCCC(F)(F)CC1` [Example 04, 3-(4,4-difluoroazepan-1-yl)-N-(6-carbonyl-1,6-dihydropyridazin-4-yl)quinoxaline-2-carboxamide], at hNav1.8, the inhibition at 0.01 µM came to 3.33% and the inhibition at 0.1 µM was determined as 46%. Besides, the half-life at 1 µM in series [1] came to 1.33 h.

Regarding `O=C(Nc1ccc[n+]([O-])c1)c1nc2ccccc2nc1N1CCCC(F)(F)CC1` [Example 01], at hNav1.8, the inhibition at 0.01 µM turned out to be 0.36% and the inhibition at 0.1 µM is 41.8%. For the same compound, the half-life at 1 µM in series [1] is over 2.42 h.

`NC(=O)c1cc(NC(=O)c2nc3ccc(Cl)cc3cc2N2CCCC(F)(F)CC2)ccn1` [Example 20, N-(2-carbamoylpyridin-4-yl)-6-chloro-3-(4,4-difluoroazepan-1-yl)quinoline-2-carboxamide]: at hNav1.8, the inhibition at 0.01 µM was 19.5% and the inhibition at 0.1 µM is 81.1%.

With `O=C(Nc1cc[nH]c(=O)c1)c1nc2ccccc2nc1N1CCCC(F)(F)CC1` [Example 03, 3-(4,4-difluoroazepan-1-yl)-N-(2-carbonyl-1,2-dihydropyridin-4-yl)quinoxaline-2-carboxamide], on hNav1.8, the inhibition at 0.01 µM is 19.7% and the inhibition at 0.1 µM amounted to 70%. The half-life at 1 µM in series [1] amounted to 1.32 h.

`COc1ccc2cc(C(=O)Nc3ccnc(C(N)=O)c3)c(N3CCCC(F)(F)CC3)nc2c1` [Example 22, N-(2-carbamoylpyridin-4-yl)-2-(4,4-difluoroazepan-1-yl)-7-methoxyquinoline-3-carboxamide]: the inhibition at 0.1 µM on hNav1.8 was 90.7%.

For the compound `NC(=O)c1cc(NC(=O)c2cc3cccnc3cc2N2CCCC(F)(F)CC2)ccc1F` [Example 19, N-(3-carbamoyl-4-fluorophenyl)-7-(4,4-difluoroazepan-1-yl)quinoline-6-carboxamide], on hNav1.8, the inhibition at 0.01 µM was determined as 0.44% and the inhibition at 0.1 µM stood at 16.6%.

A word on the solubility (kinetic): it is solubility judged after dilution from a stock solution rather than from solid. As for `Cc1cc(F)ccc1Oc1cc(C(F)(F)F)ccc1C(=O)Nc1cc[nH]c(=O)c1` [Example 32, 2-(4-fluoro-2-methylphenoxy)-N-(2-carbonyl-1,2-dihydropyridin-4-yl)-4-(trifluoromethyl)benzamide, reference compound], on hNav1.8, the inhibition at 0.01 µM is 38.1% and the inhibition at 0.1 µM was 84.7%. Further, the solubility (kinetic) at 2 h in series [2] was under 1.56 µM.

A word on the IC50: it is the midpoint of a concentration-inhibition curve. For `NS(=O)(=O)c1cc(NC(=O)c2cc3cc(F)c(F)cc3nc2N2CCCC(F)(F)CC2)ccn1` [Example 17, 2-(4,4-difluoroazepan-1-yl)-6,7-difluoro-N-(2-sulfamoylpyridine-4-yl)quinoline-3-carboxamide], at hNav1.8, the inhibition at 0.01 µM came to 98.3%, the inhibition at 0.1 µM amounted to 100% and the IC50 is 0.095 nM. Besides, in series [1], the half-life at 1 µM was over 2.42 h.

Take `NC(=O)c1cc(NC(=O)c2cc3cc(F)c(F)cc3nc2N2CCCC(F)(F)CC2)ccc1F` [Example 21, N-(3-carbamoyl-4-fluorophenyl)-2-(4,4-difluoroazepan-1-yl)-6,7-difluoroquinoline-3-carboxamide]: the IC50 on hNav1.8 worked out at 0.36 nM. Moreover, the half-life at 1 µM in series [1] is 0.943 h.

As to `NC(=O)c1cc(NC(=O)c2nc3ccccc3cc2N2CCCC(F)(F)CC2)ccn1` [Example 15, N-(2-carbamoylpyridin-4-yl)-3-(4,4-difluoroazepan-1-yl) quinoline-2-carboxamide], on hNav1.8, the inhibition at 0.01 µM is 15.4% and the inhibition at 0.1 µM stood at 49.9%.

On to `NC(=O)c1cccc(NC(=O)c2cc3cc(F)c(F)cc3nc2N2CCCC(F)(F)CC2)c1` [Example 12, N-(3-carbamoylphenyl)-2-(4,4-difluoroazepan-1-yl)-6,7-difluoroquinoline-3-carboxamide], for which, on hNav1.8, the inhibition at 0.01 µM was determined as 95.8% and the inhibition at 0.1 µM was determined as 100%.

Take `NC(=O)c1cc(NC(=O)c2nc3ccccc3cc2N2CCCC(F)(F)CC2)ccc1F` [Example 11, N-(3-carbamoyl-4-fluorophenyl)-3-(4,4-difluoroazepan-1-yl) quinoline-2-carboxamide]: on hNav1.8, the inhibition at 0.01 µM amounted to 15.3% and the inhibition at 0.1 µM came out at 72.8%.
